Results from patent US11932626B2, “2-pyrimidone analogs as potent antiviral agents against Alphaviruses” (priority 2020, dated 2024).

Assays:
VEEV (TC-83) = assay: microbe, parasite or virus in culture; assay type: cell-based; conditions: Venezuelan equine encephalitis virus, read-out: VEEV EC50
CHIKV = CHIKV virus titer reduction (VTR) assay in NHDF cells; assay type: cell-based; conditions: Chikungunya virus; for log reduction at 10 µM: CHIKV titer reduction at 10 μM, normal human dermal fibroblasts (NHDF) cells; for EC90: effective concentration of 90% inhibition of virus in a VTR assay, NHDF cells
[1] = test system: CHIKV linked NanoLuc luciferase reporter; assay: microbe, parasite or virus in culture; assay type: cell-based; conditions: Chikungunya virus, read-out: CHIKV EC50
in vitro = conditions: human
VEEV = assay: microbe, parasite or virus in culture; assay type: cell-based; conditions: Venezuelan equine encephalitis virus, NHDF; for EC90: read-out: VEEV EC90; for log reduction at 10 µM: read-out: VEEV VTR

Row | Compound | EC50 (VEEV (TC-83)) [µM] | log reduction at 10 µM (CHIKV) | EC90 (CHIKV) [µM] | EC50 [1] [µM] | CC50 (in vitro) [µM] | EC90 (VEEV) [µM] | log reduction at 10 µM (VEEV)
1 | O=C(COc1cc(Oc2ccc(F)cc2)[nH]c(=O)n1)NC12CC3CC(CC(C3)C1)C2 [compound 37, N-(adamantan-1-yl)-2-((6-(4-fluorophenoxy)-2-oxo-1,2-dihydropyrimidin-4-yl)oxy)acetamide] | > 40 | 0 | > 10 | > 40 | > 40 | > 10 | 0.8
2 | CC(C)(C)COc1cc(OCC(=O)NC23CC4CC(CC(C4)C2)C3)nc(=O)[nH]1 [compound 51, N-(Adamantan-1-Yl)-2-((6-(Neopentyloxy)-2-Oxo-1,2-Dihydropyrimidin-4-Yl)Oxy)Acetamide] | > 40 | 3.77 | 0.75 | 7.43 | > 40 | 0.1 | 3.85
3 | CC(C)(C#N)COc1cc(OCC(=O)NC23CC4CC(CC(C4)C2)C3)nc(=O)[nH]1 [compound 52, N-(Adamantan-1-Yl)-2-((6-(2-Cyano-2-Methylpropoxy)-2-Oxo-1,2-Dihydropyrimidin-4-Yl)Oxy)Acetamide] | > 40 | 2.42 | 2.5 | 13.7 | > 40 | 2.5 | 2.5
4 | O=C(COc1nc(=O)[nH]c2c1COCC2)NC12CC3CC(CC(C3)C1)C2 [compound 23, N-(Adamantan-1-Yl)-2-((2-Oxo-1,5,7,8-Tetrahydro-2H-Pyrano[4,3-D]Pyrimidin-4-Yl)Oxy)Acetamide] | 11.1 | 5.85 | 0.2 | 1.11 | > 40 | 2.1 | 6.4
5 | Cc1[nH]c(=O)nc(OCC(=O)NC23CC4CC(CC(C4)C2)C3)c1C [compound 29, N-(Adamantan-1-Yl)-2-((5,6-Dimethyl-2-Oxo-1,2-Dihydropyrimidin-4-Yl)Oxy)Acetamide] | > 40 | 4.24 | 0.4 | 2.29 | > 40 | 2.97 | 2.91
6 | Cc1[nH]c(=O)nc(SCC(=O)NC23CC4CC(CC(C4)C2)C3)c1C#N [compound 2] | > 40 | 1.25 |  | 22.9 | > 40 |  | 1.1
7 | O=C(COc1cc(OC2CC2)[nH]c(=O)n1)NC12CC3CC(CC(C3)C1)C2 [compound 48, N-(Adamantan-1-Yl)-2-((6-Cyclopropoxy-2-Oxo-1,2-Dihydropyrimidin-4-Yl)Oxy)Acetamide] | 3.77 | 5.51 | 0.06 | 0.283 | > 40 | 0.65 | 3.28
8 | O=C(COc1nc(=O)[nH]c(N2CC(F)(F)C2)c1F)NC12CC3CC(CC(C3)C1)C2 [compound 35, N-(Adamantan-1-Yl)-2-((6-(3,3-Difluoroazetidin-1-Yl)-5-Fluoro-2-Oxo-1,2-Dihydropyrimidin-4-Yl)Oxy)Acetamide] | 5.19 | 4 | 0.051 | 0.7 | > 40 | 1.5 | 3.35
9 | CC(C)Oc1cc(OCC(=O)NC23CC4CC(CC(C4)C2)C3)nc(=O)[nH]1 [compound 45, N-(Adamantan-1-Yl)-2-((6-Isopropoxy-2-Oxo-1,2-Dihydropyrimidin-4-Yl)Oxy)Acetamide] | 8.95 | 5.58 | 0.08 | 0.429 | > 40 | 0.98 | 2.62
10 | N#Cc1ccc(-c2cc(OCC(=O)NC34CC5CC(CC(C5)C3)C4)nc(=O)[nH]2)cc1 [compound 17, N-(Adamantan-1-Yl)-2-((6-(4-Cyanophenyl)-2-Oxo-1,2-Dihydropyrimidin-4-Yl)Oxy)Acetamide] | > 40 | 1.59 | > 40 | > 40 | > 40 | 9.8 | 3.69
11 | O=C(COc1cc(Cl)[nH]c(=O)n1)NC12CC3CC(CC(C3)C1)C2 [compound 18, N-(Adamantan-1-Yl)-2-((6-Chloro-2-Oxo-1,2-Dihydropyrimidin-4-Yl)Oxy)Acetamide] | 16.1 | 5.19 | 0.51 | 0.81 | > 40 | 5.65 | 1
12 | COc1cc(OCC(=O)NC23CC4CC(CC(C4)C2)C3)nc(=O)[nH]1 [compound 36, N-(adamantan-1-yl)-2-((6-methoxy-2-oxo-1,2-dihydropyrimidin-4-yl)oxy)acetamide] | > 40 | 4.56 | 0.23 | 1.14 | > 40 | > 10 | 0.63
13 | Cc1cc(OCC(=O)NC23CC4CC(CC(C4)C2)C3)nc(=O)[nH]1 [compound 9, N-(Adamantan-1-Yl)-2-((6-Methyl-2-Oxo-1,2-Dihydropyrimidin-4-Yl)Oxy)Acetamide] | 20 | 1.81 | 3.5 | 1.2 | > 40 | 1.1 | 1.37
14 | CCC(C)Oc1cc(OCC(=O)NC23CC4CC(CC(C4)C2)C3)nc(=O)[nH]1 (stereo not drawn) [compound 56, N-(adamantan-1-yl)-2-((6-(sec-butoxy)-2-oxo-1,2-dihydropyrimidin-4-yl)oxy)acetamide] | 16.2 | 6.6 | 0.17 | 0.701 | > 40 | > 10 | 0
15 | CC(C)Cc1cc(OCC(=O)NC23CC4CC(CC(C4)C2)C3)nc(=O)[nH]1 [compound 10, N-(Adamantan-1-Yl)-2-((6-Isobutyl-2-Oxo-1,2-Dihydropyrimidin-4-Yl)Oxy)Acetamide] | 19.7 | 8.16 | 0.31 | 1.15 | > 40 | 1.2 | 2.74
16 | O=C(COc1nc(=O)[nH]c(OCCO)c1F)NC12CC3CC(CC(C3)C1)C2 [compound 50, N-(adamantan-1-yl)-2-((5-fluoro-6-(2-hydroxyethoxy)-2-oxo-1,2-dihydropyrimidin-4-yl)oxy)acetamide] | > 40 | 0 | > 10 | 25.4 | > 40 | > 10 | 0.5
17 | COCCOc1cc(OCC(=O)NC23CC4CC(CC(C4)C2)C3)nc(=O)[nH]1 [compound 49, N-(Adamantan-1-Yl)-2-((6-(2-Methoxyethoxy)-2-Oxo-1,2-Dihydropyrimidin-4-Yl)Oxy)Acetamide] | 38.6 | 3.73 | 1.3 | 3.08 | > 40 | > 10 | 0
18 | O=C(COc1nc(=O)[nH]c(N2C3CCC2COC3)c1F)NC12CC3CC(CC(C3)C1)C2 [compound 34, 2-((6-(3-Oxa-8-Azabicyclo[3.2.1]Octan-8-Yl)-5-Fluoro-2-Oxo-1,2-Dihydropyrimidin-4-Yl)Oxy)-N-(Adamantan-1-Yl)Acetamide] | 22.5 | 6.13 | 0.19 | 1.02 | > 40 | 5 | 1.97
19 | O=C(COc1nc(=O)[nH]cc1F)NC1C2CC3CC(C2)CC1C3 (stereo not drawn) [compound 27, N-(Adamantan-2-Yl)-2-((5-Fluoro-2-Oxo-1,2-Dihydropyrimidin-4-Yl)Oxy)Acetamide] | > 40 | 1.31 | 8.75 | 32.5 | > 40 | 10 | 0
20 | O=C(COc1cc(C2CC(F)(F)C2)[nH]c(=O)n1)NC12CC3CC(CC(C3)C1)C2 [compound 14, N-(Adamantan-1-Yl)-2-((6-(3,3-Difluorocyclobutyl)-2-Oxo-1,2-Dihydropyrimidin-4-Yl)Oxy)Acetamide] | 0.83 | 3.17 | 0.07 | < 0.078 | > 40 | 0.03 | 8.19
21 | O=C(CSc1cc[nH]c(=O)n1)NC12CC3CC(CC(C3)C1)C2 [compound 3, N-(Adamantan-1-Yl)-2-((2-Oxo-1,2-Dihydropyrimidin-4-Yl)Thio)Acetamide] | 2.5 | 7.44 | 0.31 | 0.5 | > 40 | 0.31 | 4.49
22 | O=C(COc1nc(=O)[nH]c2c1CCCC2)NC12CC3CC(CC(C3)C1)C2 [compound 22, N-(Adamantan-1-Yl)-2-((2-Oxo-1,2,5,6,7,8-Hexahydroquinazolin-4-Yl)Oxy)Acetamide] | 8.7 | 4.94 | 0.045 | 0.64 | > 40 | 1.44 | 7.02
23 | O=C(COc1cc(N2CC(F)(F)C2)[nH]c(=O)n1)NC12CC3CC(CC(C3)C1)C2 [compound 20, N-(Adamantan-1-Yl)-2-((6-(3,3-Difluoroazetidin-1-Yl)-2-Oxo-1,2-Dihydropyrimidin-4-Yl)Oxy)Acetamide] | 2.01 | 3.49 | 0.067 | < 0.078 | > 40 | 0.4 | 6.63
